Test results from paper PMC6150246, “Design, Synthesis and Preliminary Biological Evaluation of Novel Benzyl Sulfoxide 2-Indolinone Derivatives as Anticancer Agents” (Molecules : A Journal of Synthetic Chemistry and Natural …, 2017).

Tests used:
[1] = test system: human lung carcinoma A549; assay: MTS cytotoxicity assay, A549; assay type: cell-based
Description: (§1) To investigate the relationship between anticancer activity and tyrosine kinase inhibitory activity, these compounds were further evaluated for in vitro cytotoxicity against five cancer cell lines (human cervical carcinoma cell line HeLa, human breast carcinoma cell line MCF-7, human liver carcinoma cell line HepG2, human tongue carcinoma cell line SCC-15, and human lung carcinoma A549) using MTS assay. Indo 5 was also used as a reference compound.
(§2) The five types of human cancer cell lines (HeLa, HepG2, MCF-7, SCC-15, and A549) were cultured aseptically using Dulbecco’s modified Eagle’s medium (DMEM) supplemented with 10% (v/v) fetal bovine serum (FBS) and penicillin (100 units mL^−1)/streptomycin ([…]), at pH 7.2 and 5% CO2 humidified atmosphere at 37 °C. After attaining 80% confluence, the cells were trypsinized with 0.25 trypsin–EDTA and diluted with media to a fixed number of cells.
(§3) Cytotoxic activity was assessed using the standard MTS method by using triplicate assay. The cells were seeded into 96-well plates containing the medium at the density of 4000–6000 cells/mL (100 μL/well). The compounds were dissolved in DMSO to the concentration of 100 mM and diluted in a culture medium to the concentrations needed. After 24 h, the cultured cells were treated with concentrations of synthesized compounds (3.125 μM to 100 μM for tumor cells) for 48 h. After 48 h of incubation, the supernatant was replaced by fresh medium (100 μL/well) and 10 μL MTS reagent ([3-(4,5-dimethylthiazol-2-yl)-5-(3-carboxymethoxyphenyl)-2-(4-sulfophenyl)-2H-tetrazolium, inner salt]) was added to each well. The plate was further incubated for 3 h at 37 °C in 5% CO2. The optical absorbance in individual wells was determined at 492 nm using a microplate reader. The inhibition rates were calculated by the following formula: Inhibition rate (%) = (ODnegative control − ODsample)/(ODnegative control − ODblank) × 100%
(§4) IC50 was calculated using GraphPad Prism Software (GraphPad Prism 5, La Jolla, CA, USA). For each concentration, at least three wells were performed to calculate the average parameter.

[2] = test system: human cervical carcinoma cell line HeLa; assay: MTS cytotoxicity assay, HeLa; assay type: cell-based; conditions: for IC50: 48 h treatment; for activity against the HeLa cell line, in words: Indo 5 as reference
Description: as §1, §2, §3, §4

[3] = test system: human liver carcinoma cell line HepG2; assay: MTS cytotoxicity assay, HepG2; assay type: cell-based
Description: as §1, §2, §3, §4

[4] = test system: human breast carcinoma cell line MCF-7; assay: MTS cytotoxicity assay, MCF-7; assay type: cell-based
Description: as §1, §2, §3, §4

[5] = test system: human tongue carcinoma cell line SCC-15; assay: MTS cytotoxicity assay, SCC-15; assay type: cell-based
Description: as §1, §2, §3, §4

tyrosine kinase = assay: Tyrosine kinase inhibitory activity assay (self-made ELISA kit); assay type: biochemical; conditions: for IC50: tyrosine kinase tissue extract, 37 °C 30 min
Protocol: The 16 designed compounds were first evaluated for tyrosine kinase inhibitory activity using ELISA assay. Indo 5 was used as a reference compound. The kit was self-made and is a very effective and economical method for preliminary tyrosine kinase inhibitory activity evaluation.
The tyrosine kinase inhibitory activity assay was performed as described in the literature. Details of the experimental procedures are presented in Supplementary Materials associated with this article. The IC50 was calculated using GraphPad Prism Software (GraphPad Prism 5, La Jolla, CA, USA). For each concentration, at least three wells were performed to calculate the average parameter.
100μL to each well. The plate was covered with its lid, and incubated at 4℃ overnight (10-12 hours). Then it was washed with 200μL elution buffer once, and dried at 37℃ for 2 h. After that, it was washed with 10mM PBS once, dried at room temperature, and then stored at 4℃ […]
2.1.5. Groups: Blank control: 60μL 1×tyrosine kinase buffer + 50μL 1×tyrosine kinase buffer containing ATP; Negative control: 10μL 1×tyrosine kinase buffer + 50μL 1×tyrosine kinase buffer containing tissue extract + 50μL 1×tyrosine kinase buffer containing ATP; Positive control: 10μL 1×tyrosine kinase buffer containing L029 + 50μL 1×tyrosine kinase buffer containing tissue extract + 50μL 1×tyrosine kinase buffer containing ATP; Vehicle control: 10μL 1×tyrosine kinase buffer containing DMSO + 50μL 1×tyrosine kinase buffer containing tissue extract + 50μL 1×tyrosine kinase buffer containing ATP; Compounds to be screened: 10μL 1×tyrosine kinase buffer containing compounds to be tested + 50μL 1× tyrosine kinase buffer containing tissue extract + 50μL 1×tyrosine kinase buffer containing ATP. (First, L029 and the compounds were allowed to interact with the tyrosine kinase tissue extract at room temperature for 10 min in advance, and did the same to the Blank control and the Vehicle control, then 50μL 1×tyrosine kinase buffer containing ATP was added to […]
2.1.6. Tyrosine kinase inhibitory activity assay: 1×tyrosine kinase buffer was prepared by evenly mixing 1 mL 10× tyrosine kinase buffer with 9 mL DDW. The tissue extract was diluted with 1×tyrosine kinase buffer appropriately, mixed with it gently and evenly, and placed on ice. ATP stock solution was mixed with 1×tyrosine kinase buffer at the final concentration of 3mM , and placed on ice. The microplate was added in respective wells with the groups formulated as above, covered with the lid, and incubated at 37℃ for 30 min. The microplate was washed with 200μL elution buffer and tapped until the residual buffer was removed, and this procedure was repeated for five times. To each well, 100μL antibody diluent (antibody elution buffer diluted at a ratio of 1:2000) was added. The microplate was covered with the lid, and incubated at room temperature for 30 min. OPD solution was prepared by addition of 4 mg OPD into a mixture of 4.86 mL 0.1 mol/L citric acid solution and 5.14 mL 0.2 mol/L Na2HPO4 solution, followed by addition of 50μL 30% H202 to allow for complete dissolution, and then was protected from light. The antibody solution was […]
removed. The microplate was washed with 200μL elution buffer and tapped until the residual buffer was removed, and this procedure was repeated for five times. 100μL freshly prepared OPD was added, and reacted at room temperature light tight for precisely 7 min. Negative […]
100μL 2.5 N H2SO4 was added to terminate the reaction. OD
2.1.7. Sample screening: Samples were screened preliminarily by using triplicate assay. The effect of the samples on tyrosine kinase inhibitory activity was tested, and the inhibition rate was calculated. Inhibition rate (%)=(ODnegative control – ODsample) / (ODnegative control* – ODblank) × 100%; *While calculating inhibition rate of positive drugs, ODnegative control in the equation was replaced with ODvehicle control to exclude the influence of DMSO on tyrosine kinase activity. […]
2. S. Praveen Kumar, Jiri Gut, Rita C. […]

[6] = Homo sapiens, A549, 48 h treatment
[7] = Homo sapiens, HepG2, 48 h treatment
[8] = Homo sapiens, MCF7, 48 h treatment
[9] = Homo sapiens, SCC-15, 48 h treatment

Row | Compound | melting point [°C] | IC50 (tyrosine kinase) [µM] | tyrosine kinase inhibitory activity, in words (tyrosine kinase; Indo 5 as reference) | IC50 [1, 6] [µM] | IC50 ([2]; Homo sapiens, HeLa) [µM] | activity against the HeLa cell line, in words [2] | IC50 [3, 7] [µM] | activity against the MCF-7 cell line, in words [4] | IC50 [4, 8] [µM] | IC50 [5, 9] [µM] | activity against the HepG2 cell line, in words [3] | IC50 ([1]; 48 h treatment) [µM] | IC50 [2] [µM] | IC50 ([3]; 48 h treatment) [µM] | IC50 ([4]; 48 h treatment) [µM] | IC50 ([5]; 48 h treatment) [µM]
1 | O=C1Nc2ccccc2/C1=C/[S+]([O-])Cc1ccccc1F (centres unmarked) [Compound 6b, (Z)-3-(((2-Fluorobenzyl)sulfinyl)methylene)indolin-2-one] | 183 to 184 | 3.74 ± 0.19 | – | > 100 | 14 ± 0.27 | stronger activity than Indo 5 | 47.8 ± 1.47 | – | 49.1 ± 1.08 | > 100 | – | – | – | – | – | –
2 | O=C1Nc2ccccc2/C1=C/[S+]([O-])Cc1cccc(F)c1 (centres unmarked) [Compound 6c, (Z)-3-(((3-Fluorobenzyl)sulfinyl)methylene)indolin-2-one] | 186 to 187 | 9.32 ± 0.66 | – | > 100 | 24.4 ± 0.54 | – | 42 ± 0.7 | good antitumor activity | 31.5 ± 0.82 | 49.9 ± 0.93 | – | – | – | – | – | –
3 | O=C1Nc2ccccc2/C1=C/[S+]([O-])Cc1ccc(F)cc1 (centres unmarked) [Compound 6d, (Z)-3-(((4-Fluorobenzyl)sulfinyl)methylene)indolin-2-one] | 193 to 194 | 9.3 ± 0.47 | – | 90.3 ± 2.14 | 25 ± 0.68 | – | 36.2 ± 0.53 | – | 49.12 ± 0.29 | 65 ± 1.47 | considerable cytotoxic activity | – | – | – | – | –
4 | O=C1Nc2ccccc2/C1=C/[S+]([O-])Cc1ccccc1Cl (centres unmarked) [Compound 6e, (Z)-3-(((2-Chlorobenzyl)sulfinyl)methylene)indolin-2-one] | 202 to 203 | 5.09 ± 0.12 | – | > 100 | 70.9 ± 1.17 | – | 96.83 ± 0.95 | – | > 100 | > 100 | – | – | – | – | – | –
5 | O=C1Nc2ccccc2/C1=C/[S+]([O-])Cc1cccc(Cl)c1 (centres unmarked) [Compound 6f, (Z)-3-(((3-Chlorobenzyl)sulfinyl)methylene)indolin-2-one] | 192 to 194 | 5.96 ± 0.14 | – | > 100 | 60.3 ± 1.98 | – | 86.5 ± 1.15 | – | 93 ± 1.5 | 96.8 ± 3.76 | – | – | – | – | – | –
6 | Cc1ccccc1C[S+]([O-])/C=C1\C(=O)Nc2ccccc21 (centres unmarked) [Compound 6l, (Z)-3-(((2-Methylbenzyl)sulfinyl)methylene)indolin-2-one] | 198 to 199 | 16.02 ± 0.05 | weak tyrosine inhibitory activity | > 100 | > 100 | – | > 100 | – | 81.6 ± 2.62 | > 100 | – | – | – | – | – | –
7 | Cc1ccccc1NS(=O)(=O)c1ccc2c(c1)/C(=C/c1nc3ccccc3[nH]1)C(=O)N2 [Indo 5, reference compound] | – | 11.6 ± 0.79 | – | – | – | – | – | – | – | – | – | 29.16 ± 0.29 | 19.6 ± 0.46 | 22.2 ± 0.41 | 24.2 ± 0.49 | 28.2 ± 1.08

These reach a lower IC50 (tyrosine kinase). Values come first.

Row | melting point [°C] | IC50 (tyrosine kinase) [µM] | tyrosine kinase inhibitory activity, in words (tyrosine kinase; Indo 5 as reference) | Compound | IC50 [1, 6] [µM] | IC50 ([2]; Homo sapiens, HeLa) [µM] | activity against the HeLa cell line, in words [2] | IC50 [3, 7] [µM] | activity against the MCF-7 cell line, in words [4] | IC50 [4, 8] [µM] | IC50 [5, 9] [µM] | activity against the HepG2 cell line, in words [3] | IC50 ([1]; 48 h treatment) [µM] | IC50 [2] [µM] | IC50 ([3]; 48 h treatment) [µM] | IC50 ([4]; 48 h treatment) [µM] | IC50 ([5]; 48 h treatment) [µM]
8 | 191 to 192 | 3.16 ± 0.31 | – | O=C1Nc2ccccc2/C1=C/[S+]([O-])Cc1ccccc1 (centres unmarked) [Compound 6a, (Z)-3-((Benzylsulfinyl)methylene)indolin-2-one] | > 100 | 11.2 ± 0.42 | stronger activity than Indo 5 | 52.1 ± 0.94 | good antitumor activity | 35.2 ± 1.16 | 58.9 ± 0.75 | – | – | – | – | – | –
9 | 193 to 195 | 3.3 ± 0.03 | – | O=C1Nc2ccccc2/C1=C/[S+]([O-])Cc1ccc(Cl)cc1 (centres unmarked) [Compound 6g, (Z)-3-(((4-Chlorobenzyl)sulfinyl)methylene)indolin-2-one] | > 100 | 40.9 ± 0.88 | – | 75.35 ± 0.72 | – | 92.6 ± 0.97 | > 100 | – | – | – | – | – | –
10 | 198 to 199 | 3.52 ± 0.15 | – | O=C1Nc2ccccc2/C1=C/[S+]([O-])Cc1ccccc1Br (centres unmarked) [Compound 6h, (Z)-3-(((2-Bromobenzyl)sulfinyl)methylene)indolin-2-one] | > 100 | 79.9 ± 1.57 | – | 98.3 ± 2.04 | – | > 100 | > 100 | – | – | – | – | – | –
11 | 193 to 194 | 3.32 ± 0.19 | – | O=C1Nc2ccccc2/C1=C/[S+]([O-])Cc1cccc(Br)c1 (centres unmarked) [Compound 6i, (Z)-3-(((3-Bromobenzyl)sulfinyl)methylene)indolin-2-one] | 64.9 ± 1.57 | 48.42 ± 0.14 | – | 71.8 ± 2.18 | – | 75.1 ± 1.93 | 82.1 ± 3.34 | – | – | – | – | – | –
12 | 181 to 182 | 2.23 ± 0.14 | – | COc1cccc(C[S+]([O-])/C=C2\C(=O)Nc3ccccc32)c1 (centres unmarked) [Compound 6k, (Z)-3-(((3-Methoxybenzyl)sulfinyl)methylene)indolin-2-one] | 62.3 ± 2 | 22.7 ± 0.64 | – | 49.4 ± 1.33 | – | 59.1 ± 37 | 86.7 ± 5.16 | – | – | – | – | – | –
